From the NIST ThermoML archive (doi:10.1021/acs.jced.6b00354)

Settings: 101.33 kPa, Liquid, Vibrating tube method

CC(=O)N(C)C [N,N-dimethylethanamide]
Settings | mass density [kg/m3]
283.15 K | 950.189
288.15 K | 945.589
293.15 K | 940.983
298.15 K | 936.38
303.15 K | 931.762
308.15 K | 927.145
313.15 K | 922.523
318.15 K | 917.893
